Here are results for 49 molecules from EP4786459A1, “BENZENE RING-CONTAINING COMPOUND HAVING ANALGESIC EFFECT, PREPARATION METHOD THEREFOR, AND USE THEREOF” (West China Hospital, Sichuan University, priority 2023, dated 2025).

Series [1] has as its system rats. Put plainly: Loss of tail withdrawal reflex (LOTWR) in rats, single intravenous injection, dose escalation: potent analgesic effect and severe adverse reactions. The class given is in vivo, SD rats. To be noted: Rattus norvegicus, single intravenous injection (tail vein), LOTWR lasting for 30 seconds as criterion, class symbol, read-out: The minimum effective dose. On the procedure:
(§1) Using the loss of tail withdrawal reflex (LOTWR) in rats as an indicator, the potent analgesic effect of the compounds according to the present invention was evaluated.
(§2) 1.1 Experimental animals: Adult male SD rats weighing between 220-300 g were selected for the experiment. The rats were housed in sawdust-bedded cages with a temperature of 25±1°C, humidity ranging from 40% to 60%, and a 12-hour light/12-hour dark cycle. Each cage contained no more than 5 rats, with free access to water and food.
(§3) • (1) The compound of the present invention, along with the positive control drug remifentanil and the negative control (vehicle), were administered in fixed volumes. A dose escalation approach was employed to determine the minimum effective dose at which the compound of the present invention produces potent analgesic effects, as well as the minimum dose at which severe adverse reactions first appear. • (2) LOTWR lasting for 30 seconds was used as the criterion for generating potent analgesic effects. During the experiment, drugs were administered via the tail vein of rats, with a dosage volume of 0.6 mL per rat and a dosage rate of 0.02 mL/s. Subsequently, an alligator clip was applied at a distance of 1 cm from the base of the rat's tail, clamping once longitudinally and once transversely before being left in place. Meanwhile, the distal end of the alligator clip was continuously oscillated (30 times/min) to continuously generate stimulation. […] When all results were "no LOTWR" after 10 minutes of testing (5 trials), the test was stopped and recorded as "ineffective." • (3) All compounds would undergo a dose escalation for efficacy evaluation, starting from 1 mg/kg (due to the high potency of remifentanil, the lowest dose was set at 1 µg/kg), followed by 5 mg/kg, 10 mg/kg, 20 mg/kg, and so on (increasing by 20 mg/kg increments after 20 mg/kg). The dose escalation would be stopped when rats show signs of death, and the lowest effective dose and the lowest dose at which severe adverse reactions occur would be recorded throughout the process. In this study, severe adverse reactions are defined as apnea, generalized tonic rigidity, convulsions, opisthotonus, seizures, etc.
(§4) 1.3 Evaluation indicators: the minimum effective dose; the minimum dose resulting in serious adverse reactions; the safety therapeutic index = "the minimum dose resulting in serious adverse reactions" / "the minimum effective dose".

Test in series [2]: as above
The class given is in vivo, SD rats. Conditions: rat, in vivo, single intravenous injection, minimum dose resulting in serious adverse reactions / minimum effective dose, class symbol, read-out: The safety therapeutic index. The procedure: as §1, §2, §3, §4

For `Cc1ccc(CNC(=O)NCc2ccsc2)c(N(C)C)c1` [Example 1], the minimal effective dose in series [1] is ≤ 10 mg/kg. For the same molecule, the selectivity ratio in series [2] was in the range of 2 to 4.

On to `Cc1ccc(CNC(=S)NCc2ccsc2)c(N(C)C)c1` [Example 2, 1-(2-(dimethylamino)-4-methylbenzyl)-3-(thiophene-3-ylmethyl)thiourea], for which the minimal effective dose in series [1] is ≤ 10 mg/kg. Besides, in series [2], the selectivity ratio is ≤ 2.

Take `Cc1ccc(CNC(=N)NCc2ccsc2)c(N(C)C)c1` [Example 3, 1-(2-(dimethylamino)-4-methylbenzyl)-3-(thiophen-3-ylmethyl)guanidine]: in series [1], the minimal effective dose was ≤ 10 mg/kg. Further, the selectivity ratio in series [2] is 2 to 4.

Consider `Cc1ccc(CNC(=NC#N)NCc2ccsc2)c(N(C)C)c1` [Example 4], for which the minimal effective dose in series [1] was > 30 mg/kg. The selectivity ratio in series [2] was ≤ 2.

Regarding `Cc1ccc(CNC(=O)OCc2ccsc2)c(N(C)C)c1` [Example 5], the minimal effective dose in series [1] is ≤ 10 mg/kg. Also, the selectivity ratio in series [2] lay within 2 to 4.

In the case of `Cc1ccc(COC(=O)NCc2ccsc2)c(N(C)C)c1` [Example 6, 2-(dimethylamino)-4-methylbenzyl(thiophene-3-ylmethyl)carbamate], in series [1], the minimal effective dose is ≤ 10 mg/kg. Also, the selectivity ratio in series [2] fell in the range of 2 to 4.

As to `Cc1ccc(CNC(=C[N+](=O)[O-])NCc2ccsc2)c(N(C)C)c1` [Example 7], the minimal effective dose in series [1] was > 30 mg/kg. Besides, the selectivity ratio in series [2] is ≤ 2.

For `Cc1ccc(CNc2c(NCc3ccsc3)c(=O)c2=O)c(N(C)C)c1` [Example 8], the minimal effective dose in series [1] was > 30 mg/kg. In addition, the selectivity ratio in series [2] was ≤ 2.

With `Cc1ccc(CNC(=O)NCc2ccoc2)c(N(C)C)c1` [Example 9], the minimal effective dose in series [1] was in the range of 20 to 30 mg/kg. Moreover, the selectivity ratio in series [2] was ≤ 2.

Take `Cc1ccc(CNC(=O)NCc2cccs2)c(N(C)C)c1` [Example 10]: the minimal effective dose in series [1] was ≤ 10 mg/kg. The selectivity ratio in series [2] was > 4.

In the case of `Cc1ccc(CCNC(=O)NCc2ccsc2)c(N(C)C)c1` [Example 11, 1-(2-(dimethylamino)-4-methylphenethyl)-3-(thiophene-3-ylmethyl)urea], the minimal effective dose in series [1] was ≤ 10 mg/kg. Further, the selectivity ratio in series [2] is 2 to 4.

For the molecule `Cc1ccc(CNC(=O)NCCc2ccsc2)c(N(C)C)c1` [Example 12, 1-(2-(dimethylamino)-4-methylbenzyl)-3-(2-(thiophene-3-yl)ethyl)urea], the minimal effective dose in series [1] is ≤ 10 mg/kg. The selectivity ratio in series [2] is ≤ 2.

Turning to `Cc1ccc(NC(=O)Nc2ccsc2)c(N(C)C)c1` [Example 13], the minimal effective dose in series [1] is ≤ 10 mg/kg. Besides, the selectivity ratio in series [2] is > 4.

On to `Cc1ccc(NC(=N)Nc2ccsc2)c(N(C)C)c1` [Example 14], for which, in series [1], the minimal effective dose is ≤ 10 mg/kg. For the same molecule, the selectivity ratio in series [2] was ≤ 2.

Consider `CN(C)c1cc(O)ccc1CNC(=O)NCc1ccsc1` [Example 15], for which the minimal effective dose in series [1] was in the range of 10 to 20 mg/kg. Besides, in series [2], the selectivity ratio is > 4.

Consider `[2H]C([2H])([2H])N(c1cc(C)ccc1CNC(=O)NCc1ccsc1)C([2H])([2H])[2H]` [Example 17], for which the minimal effective dose in series [1] was ≤ 10 mg/kg. Besides, the selectivity ratio in series [2] is 2 to 4.

Consider `Cc1ccc(CNC(=O)NCc2ccsc2)cc1N(C)C` [Example 18], for which the minimal effective dose in series [1] was ≤ 10 mg/kg. In addition, the selectivity ratio in series [2] fell in the range of 2 to 4.

Take `Cc1ccc(CNC(=S)NCc2ccsc2)cc1N(C)C` [Example 19, 1-(3-(dimethylamino)-4-methylbenzyl)-3-(thiophene-3-ylmethyl)thiourea]: in series [1], the minimal effective dose was ≤ 10 mg/kg. Moreover, the selectivity ratio in series [2] is ≤ 2.

Regarding `Cc1ccc(CNC(=N)NCc2ccsc2)cc1N(C)C` [Example 20, 1-(3-(dimethylamino)-4-methylbenzyl)-3-(thiophen-3-ylmethyl)guanidine], in series [1], the minimal effective dose is ≤ 10 mg/kg. Moreover, in series [2], the selectivity ratio is ≤ 2.

For `Cc1ccc(NC(=N)Nc2ccsc2)cc1N(C)C` [Example 21], the minimal effective dose in series [1] is ≤ 10 mg/kg. Also, the selectivity ratio in series [2] was > 4.

Take `COC(=O)C(C#N)=C(NCc1ccsc1)NCc1ccc(C)cc1N(C)C` [Example 22]: the minimal effective dose in series [1] is > 30 mg/kg. The selectivity ratio in series [2] is ≤ 2.

As to `Cc1ccc(CNC(=O)NCc2ccco2)c(N(C)C)c1` [Example 23], the minimal effective dose in series [1] was > 30 mg/kg. Besides, the selectivity ratio in series [2] was ≤ 2.

Take `CN(C)c1ccccc1CNC(=O)NCc1ccsc1` [Example 24]: in series [1], the minimal effective dose lay in the range of 10 to 20 mg/kg. Also, the selectivity ratio in series [2] was 2 to 4.

Turning to `Cc1ccc(CNC(=N)NCc2cccs2)c(N(C)C)c1` [Example 26], in series [1], the minimal effective dose was > 30 mg/kg. Further, in series [2], the selectivity ratio is ≤ 2.

Turning to `CN(C)c1ccccc1CNC(=O)NCc1cccs1` [Example 27], the minimal effective dose in series [1] was ≤ 10 mg/kg. Moreover, the selectivity ratio in series [2] is > 4.

In the case of `CN(C)c1ccccc1CNC(=S)NCc1cccs1` [Example 28], the minimal effective dose in series [1] is > 30 mg/kg. Moreover, the selectivity ratio in series [2] is ≤ 2.

On to `CN(C)c1cc(C(F)(F)F)ccc1CNC(=O)NCc1cccs1` [Example 29], for which, in series [1], the minimal effective dose is ≤ 10 mg/kg. The selectivity ratio in series [2] was ≤ 2.

Take `CN(C)c1cccc(CNC(=O)NCc2ccsc2)c1` [Example 30]: the minimal effective dose in series [1] is 20 to 30 mg/kg. Also, in series [2], the selectivity ratio is ≤ 2.

As for `Cc1ccc(CNC(=O)NCc2cccs2)cc1N(C)C` [Example 31], in series [1], the minimal effective dose was ≤ 10 mg/kg. For the same molecule, in series [2], the selectivity ratio is > 4.

For the molecule `Cc1ccc(CNC(=S)NCc2cccs2)cc1N(C)C` [Example 32], the minimal effective dose in series [1] was ≤ 10 mg/kg. In series [2], the selectivity ratio is > 4.

For `Cc1ccc(CNC(=N)NCc2cccs2)cc1N(C)C` [Example 33], the minimal effective dose in series [1] was ≤ 10 mg/kg. Further, in series [2], the selectivity ratio was ≤ 2.

Consider `CN(C)c1cccc(CNC(=O)NCc2cccs2)c1` [Example 34], for which, in series [1], the minimal effective dose lay within 20 to 30 mg/kg. Besides, the selectivity ratio in series [2] was ≤ 2.

Regarding `Cc1ccc(CNC(=O)NCc2ccoc2)cc1N(C)C` [Example 35], the minimal effective dose in series [1] was 20 to 30 mg/kg. In addition, the selectivity ratio in series [2] was 2 to 4.

Regarding `Cc1ccc(CNC(=O)NCc2ccco2)cc1N(C)C` [Example 36], in series [1], the minimal effective dose was ≤ 10 mg/kg. Besides, in series [2], the selectivity ratio was > 4.

As to `Cc1ccc(CNC(=O)NCc2ccns2)c(N(C)C)c1` [Example 37], the minimal effective dose in series [1] was ≤ 10 mg/kg. Besides, the selectivity ratio in series [2] was > 4.

Turning to `Cc1ccc(CNC(=O)NCc2cncs2)c(N(C)C)c1` [Example 38], in series [1], the minimal effective dose is 10 to 20 mg/kg. Also, in series [2], the selectivity ratio lay in the range of 2 to 4.

Consider `Cc1ccc(CNC(=O)NCc2nccs2)c(N(C)C)c1` [Example 39], for which, in series [1], the minimal effective dose was in the range of 10 to 20 mg/kg. For the same molecule, the selectivity ratio in series [2] was 2 to 4.

For `CN(C)c1ccccc1CNC(=O)NCc1ccns1` [Example 41], the minimal effective dose in series [1] was > 30 mg/kg. Further, in series [2], the selectivity ratio was ≤ 2.

For the molecule `Cc1ccc(CNC(=O)NCc2ccno2)c(N(C)C)c1` [Example 42], the minimal effective dose in series [1] is > 30 mg/kg. The selectivity ratio in series [2] was ≤ 2.

On to `Cc1ccc(CNC(=O)NCc2ncc[nH]2)c(N(C)C)c1` [Example 43], for which, in series [1], the minimal effective dose fell in the range of 10 to 20 mg/kg. Moreover, in series [2], the selectivity ratio was > 4.

Turning to `COC(=O)CCc1ccc(CNC(=O)NCc2ccsc2)c(N(C)C)c1` [Example 44], in series [1], the minimal effective dose was 10 to 20 mg/kg. The selectivity ratio in series [2] is ≤ 2.

For `CNC(=O)CCc1ccc(CNC(=O)NCc2ccsc2)c(N(C)C)c1` [Example 45], the minimal effective dose in series [1] was > 30 mg/kg. The selectivity ratio in series [2] fell in the range of 2 to 4.

Regarding `Cc1ccc(CNC(=O)NCc2nnn[nH]2)c(N(C)C)c1` [Example 46], the minimal effective dose in series [1] is > 30 mg/kg. Also, in series [2], the selectivity ratio was ≤ 2.

Regarding `COc1c(N(C)C)cc(CNC(=O)NCc2ccsc2)cc1N(C)C` [Example 47], the minimal effective dose in series [1] is ≤ 10 mg/kg. In addition, in series [2], the selectivity ratio is ≤ 2.

As to `CN(C)c1ccc(Oc2ccccc2)cc1CNC(=O)NCc1ccsc1` [Example 48], the minimal effective dose in series [1] was ≤ 10 mg/kg. The selectivity ratio in series [2] was 2 to 4.

Regarding `Cc1ccc(N(C)C)c(CNC(=O)NCc2ccns2)c1` [Example 49], in series [1], the minimal effective dose was > 30 mg/kg. Besides, in series [2], the selectivity ratio was 2 to 4.

For `COC(=O)c1ccc(CNC(=O)NCc2ccc(C)cc2N(C)C)s1` [Example 50], the minimal effective dose in series [1] lay in the range of 20 to 30 mg/kg. In series [2], the selectivity ratio was ≤ 2.

Consider `CCCCc1cc(CNC(=O)NCc2ccc(C)cc2N(C)C)cs1` [Example 51], for which the minimal effective dose in series [1] was ≤ 10 mg/kg. The selectivity ratio in series [2] was 2 to 4.

For the molecule `CCCCc1cscc1CNC(=O)NCc1ccc(C)cc1N(C)C` [Example 52], the minimal effective dose in series [1] was ≤ 10 mg/kg. Besides, the selectivity ratio in series [2] lay in the range of 2 to 4.
